Results from US20150329537A2, “CDK9 INHIBITORS IN THE TREATMENT OF MIDLINE CARCINOMA” (LEADDISCOVERY CENTER GMBH, priority 2011, published 2015).

Assays:
[1] = system: Brd4-Nut mutated cell lines (HCC2429, TY-82, 690100, 143100); assay: Proliferation assay on Brd4-Nut mutated versus wild type cell lines; assay type: cell-based; settings: mutated: HCC2429, TY-82, 690100, 143100; wild type: Hela, HCC366, H460, HCC1143, hPBMCs; FIG. 4
Experimental: The proliferation results are presented as IC50 in μM. First, the anti-proliferative effect of CDK9 inhibitors is much more pronounced on BrdNut mutated cell lines (=sensitive cell lines).
Cell lines were maintained in RPMI 1640 cell culture medium+glutamine (PAN Biotech GmbH, Aidenbach, Germany; order no. P04-22100; P04-05500) supplemented with 10% fetal calf serum “Gold” (PAA Laboratories GmbH, Pasching, Austria; order no. A15-151) and grown in a humidified atmosphere at 37° C., 5% C02. As a first step, an optimal cell density for each cell line was determined to guarantee linearity. For viability assays with compounds, cells were then seeded at a density of 200 to 1000 per well in 25 μl in 384-well plates (Greiner Bio-One, Frickenhausen, Germany; order no. 781080). After overnight incubation at 37° C./5% CO2, 25 nl or 75 nl compounds were added to each sample well by using BIOMEK FX^P Laboratory Automation Workstation (Beckman Coulter, USA). Wells with cells and 0.1% or 0.3% DMSO in culture medium were used as positive controls, wells with cells and 10 μM staurosporine (Selleck Chemicals, Huston, USA) in culture medium were used as negative controls. […] Luminescence was measured by Envision Plate Reader (Perkin Elmer, USA). […]

[2] = system: HCC2429 cells; assay: Proliferation / cell viability assay (Cell Titer Glo); assay type: cell-based; settings: FIG. 1; for effect on proliferation of HCC2429 cells (in words): dose response experiments
Experimental: Proliferation assays were performed as described below under materials and methods. […] (Cpd B1 and Ro-3306) were applied at concentrations between 30 and 0.0137 μM. After 72 h incubation with compounds ATP content/proliferation was determined employing CTG (Promega). Relative proliferation values (compared to vehicle control) were used to calculate IC50 values (Excel fit; algorithm #205). IC50s of the respective compound (Y-axis; logarithmic scale) on proliferation of various cell lines (X-axis) are depicted in black bars. White bars indicate that an IC50 could not be determined due to too low activity and therefore was higher than the highest applied concentration in the assays (30 μM). IC50s of compounds on CDK9 inhibitor sensitive cell line HCC2429 are presented in grey bars.
Cell lines were maintained in RPMI 1640 cell culture medium+glutamine (PAN Biotech GmbH, Aidenbach, Germany; order no. P04-22100; P04-05500) supplemented with 10% fetal calf serum “Gold” (PAA Laboratories GmbH, Pasching, Austria; order no. A15-151) and grown in a humidified atmosphere at 37° C., 5% C02. As a first step, an optimal cell density for each cell line was determined to guarantee linearity. For viability assays with compounds, cells were then seeded at a density of 200 to 1000 per well in 25 μl in 384-well plates (Greiner Bio-One, Frickenhausen, Germany; order no. 781080). After overnight incubation at 37° C./5% CO2, 25 nl or 75 nl compounds were added to each sample well by using BIOMEK FX^P Laboratory Automation Workstation (Beckman Coulter, USA). Wells with cells and 0.1% or 0.3% DMSO in culture medium were used as positive controls, wells with cells and 10 μM staurosporine (Selleck Chemicals, Huston, USA) in culture medium were used as negative controls. Upon incubation with compounds for 72 h at 37° C./5% CO2 25 μl Cell Titer Glo reagent (Promega, Madison, USA, order no. G7573; 1:2 diluted with cell culture medium) was added to each well to determine cell viability. […] Luminescence was measured by Envision Plate Reader (Perkin Elmer, USA). […]

[3] = target: T1, CDK9/CycT (Homo sapiens, UniProt P50750); assay: Radiometric protein kinase assay (33PanQinase Activity Assay); assay type: biochemical; settings: 10 μM compound, compared to vehicle control, 23 different kinases, FIG. 3
T1 construct: purchased ProQinase
Experimental: A similar experimental procedure is performed when the resulting activity within ^33PanQinase® assay is done. In advance buffers are prepared but in this case the pipetting sequence is first ATP solution diluted with assay buffer, DMSO or compound solution. The reaction (1 h at 30° C.) is started by addition of a substrate-kinase mix. During the incubation the kinase phosphorylates the substrate (different for each kinase). Due to the fact that the ATP solution contains ^33P labelled ATP the substrate proteins are labeled with ^33P. The reaction is stopped by addition of excess H3PO4. If the reaction is performed in plates binding substrate proteins, said plates are washed to reduce unspecific signals (mainly not used ATP). The incorporation of ^33P into substarte proteins is a direct measure of activity of the respective kinase. Therefore, the incorporated radioactivity is detected by scintillation counting. Data is evaluated, processed and analyzed as described for the LANCE assays.
A radiometric protein kinase assay (33PanQinase® Activity Assay) was used for measuring the kinase activity of the […] protein kinases. […]
The reaction cocktails were incubated at 30° C. for 60 minutes. […] Incorporation of 33Pi (counting of “cpm”) was determined with a microplate scintillation counter (Microbeta, Wallac).

T1 sequence (P50750 whole entry): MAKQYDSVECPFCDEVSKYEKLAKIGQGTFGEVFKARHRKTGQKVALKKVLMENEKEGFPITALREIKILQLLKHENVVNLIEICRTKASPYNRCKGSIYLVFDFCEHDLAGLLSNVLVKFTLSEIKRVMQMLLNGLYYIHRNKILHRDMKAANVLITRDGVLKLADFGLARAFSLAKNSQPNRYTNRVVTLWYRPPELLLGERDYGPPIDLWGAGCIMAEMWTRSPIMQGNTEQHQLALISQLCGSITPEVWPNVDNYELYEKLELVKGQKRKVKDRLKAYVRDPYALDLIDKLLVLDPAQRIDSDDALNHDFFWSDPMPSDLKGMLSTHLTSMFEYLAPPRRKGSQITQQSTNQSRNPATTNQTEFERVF
T1 sequence (O60563 whole entry partner): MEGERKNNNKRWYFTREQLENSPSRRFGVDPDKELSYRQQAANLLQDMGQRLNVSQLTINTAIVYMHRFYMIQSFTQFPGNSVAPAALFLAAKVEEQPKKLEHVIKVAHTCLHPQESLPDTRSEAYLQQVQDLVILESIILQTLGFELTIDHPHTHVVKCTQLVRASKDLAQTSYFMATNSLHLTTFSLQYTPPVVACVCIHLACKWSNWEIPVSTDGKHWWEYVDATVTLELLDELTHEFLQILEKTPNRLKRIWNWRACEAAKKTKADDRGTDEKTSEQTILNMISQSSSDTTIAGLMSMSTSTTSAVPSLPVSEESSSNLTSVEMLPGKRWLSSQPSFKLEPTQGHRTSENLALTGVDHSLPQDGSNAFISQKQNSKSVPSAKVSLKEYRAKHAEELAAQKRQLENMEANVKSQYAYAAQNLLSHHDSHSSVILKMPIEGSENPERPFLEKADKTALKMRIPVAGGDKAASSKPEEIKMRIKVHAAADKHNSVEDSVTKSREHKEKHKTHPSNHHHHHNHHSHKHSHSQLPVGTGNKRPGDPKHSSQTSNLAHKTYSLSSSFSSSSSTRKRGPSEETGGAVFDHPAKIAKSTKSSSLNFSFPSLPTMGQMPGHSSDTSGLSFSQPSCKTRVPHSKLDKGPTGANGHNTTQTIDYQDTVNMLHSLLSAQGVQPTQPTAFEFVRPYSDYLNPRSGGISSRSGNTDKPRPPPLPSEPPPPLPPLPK

SMILES: COc1ccccc1-c1cc(Nc2cccc(CS(N)(=O)=O)c2)ncn1 [1073485-20-7P, 3-[[6-(2-methoxyphenyl)-4-pyrimidinyl]amino]-Benzenemethanesulfonamide]
- proliferation inhibition in mutated, sensitive cell lines compared with wild type cell lines (in words) [1]: much more potent in mutated, sensitive cell lines

SMILES: COc1ccccc1-c1ncnc(Nc2cccc(CS(N)(=O)=O)c2)n1 [Cpd B1, 3-[(4-(2-Methoxyphenyl)-1,3,5-triazin-2-yl)amino] benzenemethanesulfonamide]
- effect on proliferation of HCC2429 cells (in words) [2]: potently affected proliferation of HCC2429 cells
- inhibition of CDK9 kinase activity, residual activity (in words) [3]: inhibits only CDK9 with high potency

SMILES: O=C1NC(=NCc2cccs2)S/C1=C\c1ccc2ncccc2c1 [Ro-3306]
- IC50 ([2]; 72 h incubation, ATP content/proliferation by CTG, 30 to 0.0137 μM): > 10 µM
- effect on proliferation of HCC2429 cells (in words) [2]: did not show comparable effects
